# Results as given in patent US10597388B2, “Pyridazinone herbicides” (FMC CORPORATION, priority 2014, dated 2020).
# Read-outs that look alike come from different tables or passages of the source.
# Legend:
# Type in all cases: in vivo
# [1] = test system: pigweed (Amaranthus retroflexus); assay: Test A greenhouse herbicide test, pre- and postemergence; conditions: Amaranthus retroflexus, 240 h; for pest or weed control at 125 g/ha: 125 g ai/ha; for pest or weed control at 500 g/ha: 500 g ai/ha; for pest or weed control at 500 g/ha / pest or weed control at 1000 g/ha: 0 to 100 scale; for pest or weed control at 1000 g/ha: 1000 g ai/ha
# Outline: (§1)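 Seeds in loam–sand blend received a preemergence directed soil spray; plants at 2–10 cm, one- to two-leaf stage, received postemergence sprays. Compounds in a non-phytotoxic solvent with surfactant. After about 10 d in a greenhouse, injury rated visually versus untreated controls on a 0–100 scale (100 = complete control).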
# [2] = test system: wheat (Triticum aestivum); assay: as above; conditions: Triticum aestivum, 240 h; for plant injury at 125 g/ha: 125 g ai/ha; for plant injury at 500 g/ha: 500 g ai/ha; for plant injury at 500 g/ha / plant injury at 1000 g/ha: 0 to 100 scale; for plant injury at 1000 g/ha: 1000 g ai/ha
# Outline: as §1
# [3] = test system: ragweed (common ragweed, Ambrosia elatior); assay: Test C greenhouse herbicide test, pre- and postemergence
# Excerpt: (§2) Seeds of plant species selected from blackgrass (Alopecurus myosuroides), ryegrass, Italian (Italian ryegrass, Lolium multiflorum), wheat (winter wheat, Triticum aestivum), galium (catchweed bedstraw, Galium aparine), corn (Zea mays), large crabgrass, large (large crabgrass, Digitaria sanguinalis), foxtail, giant (giant foxtail, Setaria faberii), johnsongrass (Sorghum halepense), lambsquarters (Chenopodium album), morningglory (Ipomoea coccinea), nutsedge, yellow (yellow nutsedge, Cyperus esculentus), pigweed (Amaranthus retroflexus), ragweed (common ragweed, Ambrosia elatior), soybean (Glycine max), barnyardgrass (Echinochloa crus-galli), oilseed rape (Brassica napus), waterhemp (common waterhemp, Amaranthus rudis), and velvetleaf (Abutilon theophrasti) were planted into a blend of loam soil and sand and treated preemergence with test chemicals formulated in a non-phytotoxic solvent mixture which included a surfactant.
# (§3) At the same time, plants selected from these crop and weed species and also chickweed (common chickweed, Stellaria media), kochia (Kochia scoparia), and oat, wild (wild oat, Avena fatua), were planted in pots containing Redi-Earth® planting medium (Scotts Company, 14111 Scottslawn Road, Marysville, Ohio 43041) comprising spaghnum peat moss, vermiculite, wetting agent and starter nutrients and treated with postemergence applications of test chemicals formulated in the same manner. Plants ranged in height from 2 to 18 cm (1- to 4-leaf stage) for postemergence treatments. Treated plants and controls were maintained in a greenhouse for 13 to 15 d, after which time all species were compared to controls and visually evaluated. Plant response ratings, summarized in Table C, are based on a scale of 0 to 100 where 0 is no effect and 100 is complete control. A dash (-) response means no test result.
# [4] = test system: lambsquarters (Chenopodium album); assay: as above
# Excerpt: as §2, §3
# [5] = test system: waterhemp (common waterhemp, Amaranthus rudis); assay: as above
# Excerpt: as §2, §3
# [6] = test system: morningglory (Ipomoea coccinea); assay: as above
# Excerpt: as §2, §3
# [7] = test system: oilseed rape (Brassica napus); assay: as above
# Excerpt: as §2, §3
# [8] = test system: pigweed (Amaranthus retroflexus); assay: as above
# Excerpt: as §2, §3
# [9] = post-emergence, Postemergence, visual rating after approx. 10 d, 0 to 100 scale (0 no effect, 100 complete control), read-out: Plant response rating, Pigweed
# [10] = post-emergence, Postemergence, 0 is no effect, 100 is complete control, read-out: Pigweed plant response rating
# [11] = pre-emergence, Preemergence, 0 to 100 scale where 0 is no effect and 100 is complete control, read-out: Pigweed plant response rating
# [12] = pre-emergence, Preemergence, 0 no effect, 100 complete control, read-out: Plant response rating, Pigweed
# [13] = post-emergence, Postemergence, visual rating after approx. 10 d, 0 to 100 scale (0 no effect, 100 complete control), read-out: Plant response rating, Wheat
# [14] = post-emergence, Postemergence, 0 is no effect, 100 is complete control, read-out: Wheat plant response rating
# [15] = pre-emergence, Preemergence, 0 to 100 scale where 0 is no effect and 100 is complete control, read-out: Wheat plant response rating
# [16] = pre-emergence, Preemergence, 0 no effect, 100 complete control, read-out: Plant response rating, Wheat
# [17] = Postemergence, 31 g ai/ha, 0 to 100 scale (0 no effect, 100 complete control)
# [18] = Postemergence, 125 g ai/ha, scale 0 to 100, 0 is no effect, 100 is complete control
# [19] = Postemergence, 250 g ai/ha, scale 0 to 100, 0 no effect, 100 complete control, 13 to 15 d
# [20] = Preemergence, 31 g ai/ha, scale 0 to 100, 0 is no effect, 100 is complete control
# [21] = Preemergence, 62 g ai/ha, scale 0 to 100, 0 is no effect, 100 is complete control
# [22] = Preemergence, 125 g ai/ha, scale 0 to 100, 0 is no effect, 100 is complete control
# [23] = Preemergence, 250 g ai/ha, scale 0 to 100, 0 no effect, 100 complete control
# [24] = postemergence, 62 g ai/ha, scale 0 to 100, 0 no effect, 100 complete control
structure (smiles),measurement,setting,value
"Cc1cc(C)c2sc(C)c(-c3c(O)c(C)nn(C)c3=O)c2c1 [Compound 2, 5-hydroxy-2,6-dimethyl-4-(2,5,7-trimethylbenzo[b]thien-3-yl)-3(2H)-pyridazinone]",pest or weed control at 125 g/ha,[1]; [9],100%
same,pest or weed control at 500 g/ha,[1]; [10],100%
same,pest or weed control at 125 g/ha,[1]; [11],100%
same,pest or weed control at 500 g/ha,[1]; [12],100%
same,plant injury at 125 g/ha,[2]; [13],20%
same,plant injury at 500 g/ha,[2]; [14],20%
same,plant injury at 125 g/ha,[2]; [15],0%
same,plant injury at 500 g/ha,[2]; [16],0%
same,Ragweed plant response rating,[3]; [17],80
same,"Plant response rating, Ragweed",[3]; [18],95
same,"Plant response rating, Ragweed",[3]; [19],98
same,"Plant response rating, Ragweed",[3]; [20],65
same,"Plant response rating, Ragweed",[3]; [21],100
same,"Plant response rating, Ragweed",[3]; [22],100
same,Ragweed plant response rating,[3]; [23],98
same,Ragweed plant response rating,[3]; [24],80
same,Lambsquarters plant response rating,[4]; [17],85
same,"Plant response rating, Lambsquarters",[4]; [18],98
same,"Plant response rating, Lambsquarters",[4]; [19],100
same,"Plant response rating, Lambsquarters",[4]; [20],100
same,"Plant response rating, Lambsquarters",[4]; [21],100
same,"Plant response rating, Lambsquarters",[4]; [22],100
same,Lambsquarters plant response rating,[4]; [23],100
same,Lambsquarters plant response rating,[4]; [24],85
same,Waterhemp plant response rating,[5]; [17],65
same,"Plant response rating, Waterhemp",[5]; [18],85
same,"Plant response rating, Waterhemp",[5]; [19],100
same,"Plant response rating, Waterhemp",[5]; [21],100
same,"Plant response rating, Waterhemp",[5]; [22],100
same,Waterhemp plant response rating,[5]; [23],100
same,Waterhemp plant response rating,[5]; [24],65
same,Morningglory plant response rating,[6]; [17],100
same,"Plant response rating, Morningglory",[6]; [18],100
same,"Plant response rating, Morningglory",[6]; [19],100
same,"Plant response rating, Morningglory",[6]; [20],98
same,"Plant response rating, Morningglory",[6]; [21],100
same,"Plant response rating, Morningglory",[6]; [22],98
same,Morningglory plant response rating,[6]; [23],100
same,Morningglory plant response rating,[6]; [24],100
same,Oilseed Rape plant response rating,[7]; [17],65
same,"Plant response rating, Oilseed Rape",[7]; [18],70
same,"Plant response rating, Oilseed Rape",[7]; [19],75
same,"Plant response rating, Oilseed Rape",[7]; [20],0
same,"Plant response rating, Oilseed Rape",[7]; [21],20
same,"Plant response rating, Oilseed Rape",[7]; [22],65
same,Oilseed Rape plant response rating,[7]; [23],65
same,Oilseed Rape plant response rating,[7]; [24],70
same,Pigweed plant response rating,[8]; [17],80
same,"Plant response rating, Pigweed",[8]; [18],90
same,"Plant response rating, Pigweed",[8]; [19],98
same,"Plant response rating, Pigweed",[8]; [20],100
same,"Plant response rating, Pigweed",[8]; [21],100
same,"Plant response rating, Pigweed",[8]; [22],100
same,Pigweed plant response rating,[8]; [23],100
same,Pigweed plant response rating,[8]; [24],60
"Cc1nn(C)c(=O)c(-c2c(C)oc3cccc(C)c23)c1O [Compound 8, 4-(2,4-dimethyl-3-benzofuranyl)-5-hydroxy-2,6-dimethyl-3(2H)-pyridazinone]",pest or weed control at 125 g/ha,[1]; [9],70%
same,pest or weed control at 500 g/ha,[1]; [10],80%
same,pest or weed control at 125 g/ha,[1]; [11],70%
same,pest or weed control at 500 g/ha,[1]; [12],100%
same,plant injury at 125 g/ha,[2]; [13],0%
same,plant injury at 500 g/ha,[2]; [14],0%
same,plant injury at 125 g/ha,[2]; [15],0%
same,plant injury at 500 g/ha,[2]; [16],0%
"CCc1oc2ccc(C)cc2c1-c1c(O)c(C)nn(C)c1=O [Compound 10, 4-(2-ethyl-5-methyl-3-benzofuranyl)-5-hydroxy-2,6-dimethyl-3(2H)-pyridazinone]",pest or weed control at 1000 g/ha,[1]; [10],90%
same,pest or weed control at 1000 g/ha,[1]; [12],100%
same,plant injury at 1000 g/ha,[2]; [14],0%
same,plant injury at 1000 g/ha,[2]; [16],0%
same,Ragweed plant response rating,[3]; [17],5
same,"Plant response rating, Ragweed",[3]; [18],70
same,"Plant response rating, Ragweed",[3]; [19],98
same,"Plant response rating, Ragweed",[3]; [20],0
same,"Plant response rating, Ragweed",[3]; [21],0
same,"Plant response rating, Ragweed",[3]; [22],0
same,Ragweed plant response rating,[3]; [23],5
same,Ragweed plant response rating,[3]; [24],30
same,Lambsquarters plant response rating,[4]; [17],50
same,"Plant response rating, Lambsquarters",[4]; [18],65
same,"Plant response rating, Lambsquarters",[4]; [19],98
same,"Plant response rating, Lambsquarters",[4]; [20],0
same,"Plant response rating, Lambsquarters",[4]; [21],0
same,Lambsquarters plant response rating,[4]; [23],30
same,Lambsquarters plant response rating,[4]; [24],80
same,Waterhemp plant response rating,[5]; [17],40
same,"Plant response rating, Waterhemp",[5]; [18],50
same,"Plant response rating, Waterhemp",[5]; [19],90
same,"Plant response rating, Waterhemp",[5]; [21],0
same,"Plant response rating, Waterhemp",[5]; [22],100
same,Waterhemp plant response rating,[5]; [23],90
same,Waterhemp plant response rating,[5]; [24],45
same,Morningglory plant response rating,[6]; [17],55
same,"Plant response rating, Morningglory",[6]; [18],100
same,"Plant response rating, Morningglory",[6]; [19],100
same,"Plant response rating, Morningglory",[6]; [20],0
same,"Plant response rating, Morningglory",[6]; [21],0
same,"Plant response rating, Morningglory",[6]; [22],25
same,Morningglory plant response rating,[6]; [23],55
same,Morningglory plant response rating,[6]; [24],90
same,Oilseed Rape plant response rating,[7]; [17],0
same,"Plant response rating, Oilseed Rape",[7]; [18],0
same,"Plant response rating, Oilseed Rape",[7]; [19],0
same,"Plant response rating, Oilseed Rape",[7]; [20],0
same,"Plant response rating, Oilseed Rape",[7]; [21],0
same,"Plant response rating, Oilseed Rape",[7]; [22],0
same,Oilseed Rape plant response rating,[7]; [23],0
same,Oilseed Rape plant response rating,[7]; [24],0
same,Pigweed plant response rating,[8]; [17],55
same,"Plant response rating, Pigweed",[8]; [18],70
same,"Plant response rating, Pigweed",[8]; [19],95
same,"Plant response rating, Pigweed",[8]; [20],0
same,"Plant response rating, Pigweed",[8]; [21],0
same,"Plant response rating, Pigweed",[8]; [22],10
same,Pigweed plant response rating,[8]; [23],30
same,Pigweed plant response rating,[8]; [24],60
